Data on two substances can be found in patent publication US20250011777A1, “DELIVERY OF ANITSENSE OLIGOMERS BY MIRROR IMAGE PEPTIDES” (SAREPTA THERAPEUTICS, INC., priority 2021, published 2025).

pEC50: −log10 of the molar value.

The conditions of data set [1]: after administration; cited from earlier work.
In data set [2] the test system is HeLa 654 cells (EGFP gene interrupted by a mutated intron of ß-globin, IVS2-654). The data set can be described thus: EGFP 654 assay (corrective splicing by PMO IVS2-654, flow cytometry). Conditions: PMO-CPP conjugates, 22 h, read-out: EC50 in concentration-response EGFP assay. Type of data set: cell-based. As for the experimental part:
Purified constructs were then tested using an activity-based readout in which nuclear delivery results in fluorescence. Briefly, HeLa cells stably transfected with an Enhanced Green Fluorescent Protein (EGFP) gene interrupted by a mutated intron of ß-globin (IVS2-654) produce a non-fluorescent EGFP protein. Successful delivery of PMO IVS2-654 to the nucleus results in corrective splicing and EGFP synthesis.
The amount of PMO delivered to the nucleus is therefore correlated with EGFP fluorescence, quantified by flow cytometry. Activity is reported as mean fluorescence intensity (MFI) relative to PMO alone. This activity assay provides indirect information on how much active PMO is delivered to the nucleus. Relative efficiency of a PMO-CPP could be characterized by comparing activity to internal concentration, as discussed later (FIG. 2). […]
For individual peptide testing, PMO-peptides were dissolved in PBS without Ca2+ or Mg2+ at a concentration of 1 mM (determined by UV) before being diluted in MEM. […] Gates were applied to the data to ensure that cells that were positive for propidium iodide or had forward/side scatter readings that were sufficiently different from the main cell population were excluded. […]
Analysis was conducted using Graphpad Prism 7 and FlowJo. For each sample, the mean fluorescence intensity (MFI) and the number of gated cells was measured. […]

Turning to Eteplirsen, in data set [1], the “time within which the majority of the drug is cleared renally” value was no more than 24 h.
Consider RXRRBRRXRRBR [BPEP], for which the pEC50 in data set [2] is roughly 5.52.
